The numbers were not newly measured in US7842730B2, “Medical emulsion of perfluororganic compounds and method for the production thereof” (priority 2004, dated 2010), which cites them from elsewhere.

For data set [1] the following is noted: for P, vapor pressure: 37°; for Vapor pressure: 37° C., Table 3.
For data set [2] the following is noted: for Tcritical (critical solution temperature in hexane): Table 1; for Critical solution temperature, (Tcritical): Table 3.
For data set [3] the following is noted: 37° C.

For the compound `CCCN1CCCCC1C` (stereo not drawn) [1-propyl-2-methylpiperidine], the “P, vapor pressure” value in data set [1] is recorded as 19 mm QS. Besides, the Tcritical (critical solution temperature in hexane) in data set [2] was 35 °C.
On to `FC1(F)C(F)(F)C(F)(F)C2(F)C(F)(F)C(F)(F)C(F)(F)C(F)(F)C2(F)C1(F)F` (stereo not drawn) [PFD, perfluorodecaline], for which the “t1/2 (elimination from the organism)” value is roughly 170 h. Also, in data set [1], the “P, vapor pressure” value is recorded as 12 mm QS and the Vapor pressure is on record as 12.7 mm QS. Moreover, the Oxygen solubility in data set [3] is reported as 40 ml/100 ml (vol.-%). For the same compound, in data set [2], the Tcritical (critical solution temperature in hexane) is 22 °C and the “Critical solution temperature, (Tcritical)” value was 22 °C.
Turning to `FC(F)(F)C(F)(F)C(F)(F)C(F)(F)C(F)(F)C(F)(F)C(F)(F)C(F)(F)C(F)(F)C(F)(F)Br` [PFDB, Perfluorodecylbromide], in data set [1], the Vapor pressure is listed as 1.5 mm QS. For the same compound, the “Critical solution temperature, (Tcritical)” value in data set [2] is 7 °C.
For `FC(F)(F)C(F)(F)C(F)(F)C(F)(F)C(F)(F)C(F)(F)C(F)(F)C(F)(F)Br` [PFOB, perfluorooctylbromide], the “t1/2 (elimination from the organism)” value was roughly 96 h. In addition, the Vapor pressure in data set [1] is reported as 10.5 mm QS. Besides, the Oxygen solubility in data set [3] is 53 ml/100 ml (vol.-%). For the same compound, the “Critical solution temperature, (Tcritical)” value in data set [2] is −20 °C.
Take `FC(F)(F)C(F)(F)C(F)(F)N(C(F)(F)C(F)(F)C(F)(F)F)C(F)(F)C(F)(F)C(F)(F)F` [PFTPA, perfluorotripropylamine]: in data set [1], the “P, vapor pressure” value is given as 17 mm QS and the Vapor pressure is reported as 18.0 mm QS. Besides, in data set [3], the Oxygen solubility is 45 ml/100 ml (vol.-%). In data set [2], the Tcritical (critical solution temperature in hexane) was 43 °C and the “Critical solution temperature, (Tcritical)” value is 44 °C.
Take `C1CCC2CCCC2C1` (stereo not drawn) [bicyclo[4.3.0]nonane]: the “P, vapor pressure” value in data set [1] is 33 mm QS. Also, in data set [2], the Tcritical (critical solution temperature in hexane) is 13 °C.
As to `C1CC2CCCC3CCC(C1)C23` (stereo not drawn) [decahydroacenaphthene], the “P, vapor pressure” value in data set [1] is 2 mm QS. Moreover, the Tcritical (critical solution temperature in hexane) in data set [2] is 24 °C.
In the case of `CCCCCCOCCCCCC` [dihexylether], in data set [1], the “P, vapor pressure” value is 2 mm QS. For the same compound, the Tcritical (critical solution temperature in hexane) in data set [2] was 59 °C.
For “perfluoromethylcyclohexylpiperidine [PFMHP]”, in data set [1], the “P, vapor pressure” value is given as 1 mm QS and the Vapor pressure is reported as 2.0 mm QS. For the same compound, in data set [3], the Oxygen solubility is 40 ml/100 ml (vol.-%). In addition, in data set [2], the Tcritical (critical solution temperature in hexane) is 38 °C and the “Critical solution temperature, (Tcritical)” value is 40 °C.
